Data set [1] is described as follows: in vitro. The settings on record: mouse, hepatocytes; for hepatocyte CLint at 2 h, 2 µM: CLint (mouse hepatocytes).
Another data set has as its system MERS-CoV. Nature of the data set: microbe, parasite or virus in culture. The data set is classed as cell-based. The settings on record: Middle East respiratory syndrome-related coronavirus, Huh-7, read-out: pEC50 (MERS-CoV CPE reduction assay) (converted).
The nature of data set [2]: Hamster hepatocyte stability. To be noted: cryopreserved hepatocytes; for half-life at 2 h, 2 µM: t1/2 (hamster hepatocytes), without ritonavir.
In another data set the test system is SARS-CoV. Put plainly: microbe, parasite or virus in culture. The data set is classed as cell-based. To be noted: Severe acute respiratory syndrome coronavirus, read-out: pEC50 (SARS-CoV CPE reduction assay) (converted).
Data set [3] can be described thus: Mouse hepatocyte stability. The settings on record: mouse, cryopreserved hepatocytes.
The nature of data set [4]: Mouse liver microsomal stability. To be noted: microsomes, pH 7.4. In general terms: Liver microsomes are a subcellular fraction often used to study metabolism.
The conditions of data set [5]: microsomes, 10 µM, pH 7.4.
A further data set addresses SARS-CoV-2 M^pro (Severe acute respiratory syndrome coronavirus 2, UniProt P0DTD1). Put plainly: biochemical. To be noted: read-out: M^pro biochemical assay pIC50 (converted). The data set is classed as biochemical.
Data set [6] in a line: in vitro. The settings on record: human, microsomes, pH 7.4.
Data set [7] is described as follows: in vitro. To be noted: mouse, microsomes, pH 7.4.
The target of a further data set is T1, Neutrophil Elastase 2 (Homo sapiens, UniProt P08246).
T1 construct: neutrophils; tissue Eurofins Discovery (assay service); host or cells: human neutrophils
T1 sequence (P08246 30-267): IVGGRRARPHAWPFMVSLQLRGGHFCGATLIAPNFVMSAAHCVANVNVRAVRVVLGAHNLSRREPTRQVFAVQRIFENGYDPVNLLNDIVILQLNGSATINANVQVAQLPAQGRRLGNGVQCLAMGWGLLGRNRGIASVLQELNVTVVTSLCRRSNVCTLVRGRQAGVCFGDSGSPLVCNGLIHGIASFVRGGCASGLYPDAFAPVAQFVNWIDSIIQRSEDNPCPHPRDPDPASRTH
Nature of the data set: Protease panel: Neutrophil Elastase 2. The data set is classed as biochemical.

For data set [8], the target named is mouse cathepsin B (mCTSB) (Mus musculus, UniProt P10605). Nature of the data set: mCTSB biochemical assay. The settings on record: read-out: pIC50 (mouse CTSB) (converted).

Two compounds from article PMC12169608, “Peptidomimetic Phenoxymethyl Ketone Warheads as Potent Dual-Mode Inhibitors against SARS-CoV‑2 M^pro and Cathepsin” (Journal of Medicinal Chemistry, 2025) can be followed below.

As usually defined, the hepatocyte CLint is the capacity of the preparation to metabolise the compound, expressed as a volume cleared per time. What is called half-life is the time needed for the level to fall by half in the phase considered. What is called microsomal CLint is the capacity of the preparation to metabolise the compound, expressed as a volume cleared per time. Lower therefore signals greater metabolic stability. Broadly, the amount remaining is the share of the starting amount still present when the sample was taken. A low value points to a greater loss. Usually inhibition stands for the change of the read-out against control, counted positive when it falls.

Where two headings read alike, the source gives them in different places.

Chain of mouse cathepsin B (mCTSB) (P10605 80-339): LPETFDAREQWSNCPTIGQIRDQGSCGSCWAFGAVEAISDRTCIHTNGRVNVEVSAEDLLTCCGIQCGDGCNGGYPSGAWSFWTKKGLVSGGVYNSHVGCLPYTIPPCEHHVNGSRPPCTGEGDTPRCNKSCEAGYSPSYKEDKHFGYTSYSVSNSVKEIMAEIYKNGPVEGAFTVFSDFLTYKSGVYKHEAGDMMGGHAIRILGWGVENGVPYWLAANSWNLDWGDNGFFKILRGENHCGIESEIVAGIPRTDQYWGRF

The compound `COc1cccc2[nH]c(C(=O)N[C@@H](Cc3cccc(F)c3)C(=O)N[C@@H](C[C@@H]3CCNC3=O)C(=O)COc3c(F)c(F)c(CO)c(F)c3F)cc12` [compound 1, N-((S)-3-(3-Fluorophenyl)-1-oxo-1-(((S)-3-oxo-1-((S)-2-oxopyrrolidin-3-yl)-4-(2,3,5,6-tetrafluoro-4-(hydroxymethyl)phenoxy)butan-2-yl)amino)propan-2-yl)-4-methoxy-1H-indole-2-carboxamide] came in with an intrinsic metabolic clearance (hepatocyte CLint) at 2 h, 2 µM in “in vitro [1]” of 186 µL/min/1e6 cells. Further, the EC50 was 5.25 nM in the data set with MERS-CoV and 302 nM with SARS-CoV. In data set [2], this compound displayed a half-life at 2 h, 2 µM of 7.9 min. In addition, the half-life at 1 µM in data set [3] was 9.3 min; in [4] it was 1.18 min. Besides, the “Peak area (%) by LCMS, mouse liver microsomal stability assay of 1” value is given as 100% in data set [5] (0 h); 86.9% in data set [5] (5 min); 67.9% in data set [5] (0.25 h); 48.7% in data set [5] (0.5 h); 35.8% in [5] (0.75 h); 32.6% in data set [5] (1 h). For the same compound, the IC50 on SARS-CoV-2 M^pro was 2.45 nM. The intrinsic clearance (microsomal CLint) in “in vitro [6]” was found to be 350 µL/min/mg. For the same compound, the fraction remaining at 1 h in the data set “in vitro [6]” was 0%. In “in vitro [7]”, this compound showed a microsomal CLint at 1 µM of 586 µL/min/mg. The amount remaining at 1 h, 1 µM in the data set “in vitro [7]” is 0%. For the same compound, the inhibition at 10 µM on Neutrophil Elastase 2 amounted to 2%.
Consider `CC(C)(O)c1c(F)c(F)c(OCC(=O)[C@H](C[C@@H]2CCNC2=O)NC(=O)[C@@H]2[C@@H]3[C@H](CN2C(=O)[C@@H](NC(=O)C(F)(F)F)C(C)(C)C)C3(C)C)c(F)c1F` [compound 14, (1R,2S,5S)-3-((S)-3,3-Dimethyl-2-(2,2,2-trifluoroacetamido)butanoyl)-6,6-dimethyl-N-((S)-3-oxo-1-((S)-2-oxopyrrolidin-3-yl)-4-(2,3,5,6-tetrafluoro-4-(2-hydroxypropan-2-yl)phenoxy)butan-2-yl)-3-azabicyclo[3.1.0]hexane-2-carboxamide], for which the intrinsic clearance (hepatocyte CLint) at 1 µM in the data set “in vitro [1]” (CLint (mouse hepatocytes + ritonavir 4:1)) was 26.7 µL/min/1e6 cells. In addition, the intrinsic metabolic clearance (hepatocyte CLint) at 2 h, 2 µM in “in vitro [1]” was 112 µL/min/1e6 cells. The compound further had a half-life at 2 h, 2 µM in data set [2] of 11.2 min. The half-life at 1 µM in data set [2] (with ritonavir 0.25 µM (compound/ritonavir 4:1), t1/2 (hamster hepatocytes + ritonavir 4:1), compound/ritonavir 4:1) was 15.5 min. This compound had a half-life at 1 µM in data set [3] of 15.5 min. The IC50 in [8] is 5.01 µM. In “in vitro [6]”, this compound showed a microsomal CLint of 40 µL/min/mg and a fraction remaining at 1 h of 30.2%. The compound further yielded an inhibition at 10 µM against Neutrophil Elastase 2 of 4%.
